Results taken from ChEMBL document CHEMBL1129762, “Synthesis and antibacterial activity of 4- and 8-methoxy trinems” (1996).

Key:
Format in all cases: functional
Staphylococcus aureus [1] = test: In vitro antibacterial activity against Staphylococcus aureus 853.
Clostridium perfringens = test: In vitro antibacterial activity against Clostridium perfringens 615E
Enterococcus faecalis = test: In vitro antibacterial activity against Enterococcus faecalis 850.
Escherichia coli [2] = test: In vitro antibacterial activity against Escherichia coli 1850
Staphylococcus aureus [3] = test: In vitro antibacterial activity against Staphylococcus aureus 663E.
Escherichia coli [4] = test: In vitro antibacterial activity against Escherichia coli 1919

Row | SMILES | MIC (Staphylococcus aureus [1]) [µg/mL] | MIC (Clostridium perfringens) [µg/mL] | MIC (Enterococcus faecalis) [µg/mL] | MIC (Escherichia coli [2]) [µg/mL] | MIC (Staphylococcus aureus [3]) [µg/mL] | MIC (Escherichia coli [4]) [µg/mL]
1 | CO[C@@]12CCCCC1=C(C(=O)[O-])N1C(=O)[C@H]([C@@H](C)O)[C@H]12.[K+] | 4 | 2000 | 16 | 8 | 4 | 4
2 | CO[C@H]1CCC[C@@H]2C1=C(C(=O)[O-])N1C(=O)[C@H]([C@@H](C)O)C21.[K+] (some centres not stated) | 1 | 4000 | 32 | 32 | 2 | 16
3 | CO[C@]12CCCCC1=C(C(=O)[O-])N1C(=O)[C@H]([C@@H](C)O)[C@H]12.[K+] | 8 | 2000 | 32 | 32 | 4 | 8
4 | CO[C@H]1CCC[C@H]2C1=C(C(=O)[O-])N1C(=O)[C@H]([C@@H](C)O)C21.[K+] (some centres not stated) | 0.25 | 30 | 1 | 0.5 | 0.25 | 0.5
5 | CO[C@@H]1CCC[C@H]2C1=C(C(=O)[O-])N1C(=O)[C@H]([C@@H](C)O)C21.[K+] (some centres not stated) | 0.5 | 120 | 8 | 1 | 0.5 | 4
6 | CO[C@@H]1CCC[C@@H]2C1=C(C(=O)[O-])N1C(=O)[C@H]([C@@H](C)O)C21.[K+] (some centres not stated) | 2 | 1000 | 32 | 16 | 2 | 16
7 | C[C@@H](O)[C@H]1C(=O)N2C(C(=O)O)=C(SCCNC=N)C[C@H]12.O [IMIPENEM] | 0.1 | 30 | 2 | 0.5 | 0.12 | 0.5
